This note sets out measurements from patent EP0751768B1, “ANTI-VIRAL AND ANTI-CANCER AGENT” (Radopath Pharmaceuticals International Limited, priority 1994, dated 1995).

The subject of data set [1] is HIV-1RF. Briefly: microbe, parasite or virus in culture. The settings on record: read-out: IC50. It is filed as cell-based, human immunodeficiency virus HIV-1RF.
Data set [2] has as its system HIV-I IIIB. As to the kind of experiment: Acute infection assay, HIV core antigen ELISA (HIV-I IIIB). It is filed as cell-based.
In data set [3] the test system is uninfected cells.
In data set [4] the test system is MAC15A (murine adenocarcinoma colon). The data set is classed as in vivo, NMR1 mice.
Data set [5] has as its system B16F1-murine melanoma. It is filed as in vivo.
The nature of data set [6]: in vitro. Particulars: CC50 (Toxicity), listed under Against HIV-I IIIB; single determinations.
In data set [7] the test system is M5076-reticulum cell sarcoma. Briefly: Anti-tumour activity against M5076 solid tumour (tumour weight inhibition). It is filed as in vivo, murine. Here is the method:
The in vivo anti-tumour responses of the compound according to the invention were assessed against the ascitic tumours, MAC15A murine colon adenocarcinoma and various solid tumour models. The MAC15A ascites tumour cells were transplanted into male NMR1 mice by ip innoculation at a cell density of 1 x 10^5 cells in 200µl buffer (Table I). The solid tumour models included the MAC13 and MAC16 murine colon adenocarcinomas, the B16 F1 murine melanoma and the M5076 reticulum cell sarcoma.
Treatment commenced 3 days after ip transplant or, in the case of solid tumours such as MAC13 and MAC16, treatment commenced when average tumour volumes reached 40mm^3.
The animals were located in both cases into groups of 5 to 8 animals.
The animals were sacrificed after 12 days or when tumours ulcerated, tumour volume exceeded 1000mm^3 or loss of body weight exceeded 50%.
Except where otherwise stated, the compound used was dissolved in DMSO and diluted in sterile distilled water, at appropriate concentrations before administration in a solvent volume of 200µl. Anti-tumour responses were obtained by comparing the median survival times or tumour growth inhibition against solvent controls.
% Tumour Weight Inhibition:-

Setting [8] is: Against HIV-I IIIB, single determinations, read-out: IC50 (Antiviral).
[9] abbreviates: read-out: CC50 (Toxicity), listed under Against HIV-I IIIB, single determinations.
[10] abbreviates: 100mg kg^-1 ip per day, schedule days 1,2,3,4,5, median, T-test group, C-solvent control, 5 animals per group.
Setting [11] is: Against HIV-I IIIB, average of the lines above, read-out: IC50 (Antiviral), Average.
Where [12] appears, read: read-out: CC50 (Toxicity), Average, listed under Against HIV-I IIIB, average of the lines above.
[13] abbreviates: control compounds in infected cells.

pIC50: −log10 of the molar value. Several values for one entry are separate records, joined by “and”; a condition that tells them apart may be missing. Equal values may be shown once. Read-outs that look alike come from different tables or passages of the source.

The term pIC50 denotes the negative decadic logarithm of the IC50, by convention in mol/L. A word on the CC50: it is the concentration at which the toxic effect on the cells reaches its halfway point.

As for `Cc1cn([C@H]2C[C@H](N=[N+]=[N-])[C@@H](CO)O2)c(=O)[nH]c1=O` [AZT], the pIC50 in data set [1] was 8.00 and 7.70.

For the compound `NC(=O)c1cc([N+](=O)[O-])c(Cl)c([N+](=O)[O-])c1Cl` [C2], the pIC50 in data set [2] (setting [8]) was 5.70. Besides, the CC50 in data set [3] (setting [9]) was 70 µM.

Turning to `O=C(O)c1cc([N+](=O)[O-])c(Cl)c([N+](=O)[O-])c1` [C4, 4-chloro-3,5-dinitrobenzoic acid], the T/C% in data set [4] (setting [10]) is recorded as 271%. Besides, the pIC50 is 4.46 in data set [2] (setting [11]); 4.40 and 4.52 in data set [2] (setting [8]); 4.52 in data set [1] (Table 7, 50% reduction in HIV core antigen levels, 72 hours post-infection). Further, the “% Tumour Weight Inhibition” value was found to be 10% in data set [5] (50 mg/kg per day ip, days 1,5, 12 days after sc transplant, corn oil); 41% in data set [5] (75 mg/kg per day ip, days 1,5, 12 days after sc transplant, corn oil); 39% in data set [5] (100 mg/kg per day ip, days 1,5, 12 days after sc transplant, corn oil). In data set [3] (Table 7, 50% inhibition of cells by 14C protein hydrolysate uptake), this compound had a CD50 of 70µm. The 50% cytotoxic concentration (CC50) in data set [3] (setting [12]) was 85 µM; in data set [3] (setting [9]), 100 µM and 70 µM.

`NC(=O)c1cc([N+](=O)[O-])c(Cl)c([N+](=O)[O-])c1` [C5]: in data set [2] (setting [8]), the pIC50 is 5.30. For the same compound, in data set [3] (setting [9]), the CC50 stood at 50 µM.

Take `COC(=O)c1cc([N+](=O)[O-])c(Cl)c([N+](=O)[O-])c1` [C6, 4-chloro-3,5-dinitrobenzoic acid methyl ester]: the “SI (Selectivity Index)” value in data set [2] stood at 12. Moreover, in data set [5] (mouse, in vivo), the “% Tumour Weight Inhibition” value is 67% and 43%. Further, the midpoint of cytotoxicity in data set [3], the CC50, lay at 60 µM.

On to `O=C(O)c1cc([N+](=O)[O-])cc([N+](=O)[O-])c1Cl` [C7, 2-chloro-3,5-dinitrobenzoic acid], for which, in data set [2] (setting [11]), the pIC50 is 4.66. For the same compound, in data set [6], the CC50 at 72 h came out at 35 µM. The CC50 in data set [3] (setting [12]) is > 175 µM.

As for `COC(=O)c1cc([N+](=O)[O-])cc([N+](=O)[O-])c1Cl` [C8, 2-chloro-3,5-dinitrobenzoic acid methyl ester], the “SI (Selectivity Index)” value in data set [2] was 5. Moreover, in data set [3], the CC50 stood at 60 µM.

As for `O=C(O)c1ccc(Cl)c([N+](=O)[O-])c1` [C9, 4-chloro-3-nitrobenzoic acid], the CC50 in data set [3] is > 200 µM.

In the case of `O=C(O)c1ccc([N+](=O)[O-])cc1Cl` [C10, 2-chloro-4-nitrobenzoic acid], the CC50 in data set [3] was > 200 µM.

Consider `O=C(O)c1ccc(Cl)c(Cl)c1` [C11, 3,4-dichlorobenzoic acid], for which the CC50 in data set [3] is > 200 µM.

`O=C(O)c1cc(Cl)ccc1Cl` [C12, 2,5-dichlorobenzoic acid] yielded a T/C% in data set [4] (mouse, in vivo, ip) of 171%. The pIC50 in data set [2] (Human immunodeficiency virus 1, IIIB, read-out: IC50 (Antiviral)) was < 3.70. Moreover, the CC50 in data set [3] was > 200 µM.

With `O=C(O)c1ccc([N+](=O)[O-])cc1[N+](=O)[O-]` [C28, 2,4-dinitrobenzoic acid], the T/C% in data set [4] (setting [10]) stood at 100%.

With `O=C(O)c1cc([N+](=O)[O-])cc([N+](=O)[O-])c1` [C29, 3,5-dinitrobenzoic acid], the T/C% in data set [4] (setting [10]) is 100%.

Turning to `CC(C)(C)NC(=O)[C@@H]1C[C@@H]2CCCC[C@@H]2CN1C[C@@H](O)[C@H](Cc1ccccc1)NC(=O)[C@H](CC(N)=O)NC(=O)c1ccc2ccccc2n1` [compound 8959], in data set [1] (setting [13]), the pIC50 was 9.00.

As for `Nc1ccn([C@H]2CC[C@@H](CO)O2)c(=O)n1` [ddC], in data set [1] (setting [13]), the pIC50 was 6.70.

`NC(=O)c1cc([N+](=O)[O-])c(Cl)c([N+](=O)[O-])c1Cl` [the amide]: the “anti-tumour activity (in words)” value in data set [7] was “without anti-tumour activity”. In data set [7] (relative to 2,4-dichloro-3,5-dinitrobenzoic acid), the increase in toxicity is on record as 10 fold.
